Test results taken from PMC6048268, “Resveratrol Inhibits Key Steps of Steroid Metabolism in a Human Estrogen-Receptor Positive Breast Cancer Model: Impact on Cellular Proliferation” (Frontiers in Pharmacology, 2018).
Several values for one entry are separate records, joined by “and”; a condition that tells them apart may be missing. Identical values can stand only once.

What was measured:
[1] = tested on: steroid metabolism in MCF-7 cells; test: Inhibition of steroid metabolism by RES in MCF-7 cells (LC–HRMS); conditions: for formation rate in the presence of RES: 48 h
Method: (§1) Briefly, cartridges were preconditioned with 2 × 1.0 ml acetonitrile and 3 × 1.0 ml ammonium acetate buffer (10 mM, pH = 5.0), and the samples were loaded onto the columns. After washing with 1 × 1.0 ml ammonium acetate buffer (10 mM, pH = 5.0) and 2 × 1.0 ml acetonitrile/ammonium acetate buffer (10 mM, pH 5.0) 10:90 (v/v), the analytes were eluted using 2 × 650 μl acetonitrile/ammonium acetate buffer (10 mM, pH = 5.0) 95:5 (v/v) and evaporated until dry. Subsequently, samples were reconstituted in 270 μl acetonitrile/ammonium acetate buffer (10 mM, pH = 5.0) 25:75 (v/v) and stored at -80°C until further LC–HRMS analysis.
(§2) After media collection, cell monolayers were washed five times with 2.0 ml DPBS, detached using 400 μl TrypLE® solution (37°C, 5 min), mixed with 600 μl DPBS and transferred into sample vials. Aliquots of these suspensions (100 μl each) were diluted and counted using the Casy® TT Cell Counter to determine the exact number of cells per sample well. The remaining cell suspensions (900 μl each) were gently centrifuged (1000 rpm, 8 min), and the supernatants were discarded. The cell pellets were subsequently resuspended in 100 μl aqueous ammonium acetate buffer (10 mM, pH = 5.0) and lysed by five freeze-thaw-cycles in liquid nitrogen (3 min each), followed by thawing at ambient temperature. Ammonium acetate buffer (1000 μl) was added, and the suspensions were centrifuged (14000 rpm, 5 min). Subsequently, the supernatants were concentrated using the same SPE protocol as described above. All processed samples were then stored at -80°C until further LC–HRMS analysis. For each condition, three biologically independent experiments were performed; the reported values represent the overall means ± SD of all values.
(§3) LC was performed with an UltiMate 3000 RSLC-series system coupled to a maXis HD ESI-Qq-TOF mass spectrometer (Bruker Corporation, Bremen, Germany). A Phenomenex Luna® 3 μm C18(2) 100 Å LC column (250 mm × 4.6 mm I.D.; Phenomenex, Inc., Torrance, CA, United States), preceded by a Hypersil® BDS-C18 guard column (5 μm, 10 mm × 4.6 mm I.D.; Thermo Fisher Scientific, Inc.) was used for the separation of the analytes at a flow rate of 1.0 ml/min and a temperature of 43°C. […] The ESI ion source settings were as follows: capillary voltage: -4.5 kV; dry gas flow rate: 8.0 l/min N2; nebulizer: 1.0 bar N2; and dry temperature: 200°C. The ion transfer parameters were set to 400 Vpp funnel RF and 300 Vpp multipole RF, the quadrupole ion energy was 8.0 eV, and the collision cell parameters were as follows: collision RF, 1100 Vpp; collision energy, 10.0 eV; transfer time, 38 μs; and pre-pulse storage, 18 μs. In the range of m/z 150–500, full-scan mass spectra were recorded.
(§4) The modes of inhibition were subsequently determined from Lineweaver–Burk plots, and the corresponding Ki values were calculated from Dixon plots using GraphPad Prism 6.0.

MDA-MB-231 cells = conditions: for formation rate: MDA-MB-231, 100 nM E1, 48 h; for Km / Vmax: MDA-MB-231, precursor DHEA or E1 0–100 nM, Michaelis–Menten; for Km / Vmax / mean formation rate: 48 h; for mean formation rate: MDA-MB-231, 100 nM DHEA
Method: as §1, §2, §3, §4

MCF-7 cells = conditions: for formation rate: MCF-7, 100 nM E1, 48 h; for Vmax: MCF-7, precursor DHEA or E1 0–100 nM, Michaelis–Menten; for Vmax / mean formation rate: 48 h; for mean formation rate: MCF-7, 100 nM DHEA
Method: as §1, §2, §3, §4

[2] = MCF-7, 100 nM DHEA + 100 μM RES

SMILES | Km ([1]; MCF-7, 0 μM RES) [µM] | Vmax ([1]; MCF-7, 0 μM RES) [fmol/10^6 cells/h] | Km ([1]; MCF-7, 5 μM RES) [µM] | Vmax ([1]; MCF-7, 5 μM RES) | Km ([1]; MCF-7, 10 μM RES) [µM] | Vmax ([1]; MCF-7, 10 μM RES) | Km ([1]; MCF-7, 25 μM RES) [µM] | Vmax ([1]; MCF-7, 25 μM RES) | Km ([1]; MCF-7, 50 μM RES) [µM] | Vmax ([1]; MCF-7, 50 μM RES) | Km ([1]; MCF-7, 100 μM RES) [µM] | Vmax ([1]; MCF-7, 100 μM RES) | formation rate (MDA-MB-231 cells) [fmol/10^6 cells/h] | Km (MDA-MB-231 cells) [µM] | Vmax (MDA-MB-231 cells) [fmol/10^6 cells/h] | formation rate (MCF-7 cells) [fmol/10^6 cells/h] | Vmax (MCF-7 cells) | mean formation rate (MDA-MB-231 cells) [fmol/10^6 cells/h] | mean formation rate (MCF-7 cells) [fmol/10^6 cells/h] | formation rate in the presence of RES [1, 2] [fmol/10^6 cells/h] | further results
C[C@]12CC[C@@H]3c4ccc(O)cc4CC[C@H]3[C@@H]1CC[C@@H]2O [E2, 17β-estradiol] | 0.169 ± 0.0117 | 628.6 ± 72.0 | 0.146 ± 0.0156 | 816.4 ± 76.6^∗ fmol/10^6 cells/h | 0.155 ± 0.0097 | 1001.4 ± 43.0^∗ fmol/10^6 cells/h | 0.153 ± 0.0136 | 1079.8 ± 71.4^∗ fmol/10^6 cells/h | 0.172 ± 0.0143 | 1247.3 ± 56.2^∗ fmol/10^6 cells/h | 0.174 ± 0.012 | 1302.2 ± 64.6^∗ fmol/10^6 cells/h | 258.9 ± 25.1 | 0.174 ± 0.0941 | 703.0 ± 164.5 | 233.9 ± 13.4 | 628.6 ± 62.0 fmol/10^6 cells/h |  |  |  | formation rate in the presence of RES ([1]; MCF-7, 100 nM E1 + 100 μM RES): 471.5 ± 43.6 fmol/10^6 cells/h
C[C@]12CC[C@@H]3c4ccc(OS(=O)(=O)O)cc4CC[C@H]3[C@@H]1CCC2=O [E1-S, estrone-3-O-sulfate] | 0.102 ± 0.0129 | 30.4 ± 0.5 | 0.094 ± 0.012 | 4.51 ± 0.33^∗ fmol/10^6 cells/h | 0.101 ± 0.0086 | 2.54 ± 0.21^∗ fmol/10^6 cells/h | 0.12 ± 0.0155 | 1.23 ± 0.11^∗ fmol/10^6 cells/h | 0.109 ± 0.0041 | 0.57 ± 0.02^∗ fmol/10^6 cells/h | 0.105 ± 0.009 | 0.28 ± 0.01^∗ fmol/10^6 cells/h | 0.49 ± 0.07 | 0.12 ± 0.0681 | 1.08 ± 0.38 | 15.1 ± 0.8 | 30.4 ± 2.5 fmol/10^6 cells/h and 30.4 ± 2.5^∗ fmol/10^6 cells/h |  |  |  | 
C[C@]12CC[C@H](OS(=O)(=O)O)CC1=CC[C@@H]1[C@@H]2CC[C@]2(C)C(=O)CC[C@@H]12 [DHEA-S, dehydroepiandrosterone-3-O-sulfate] | 0.329 ± 0.0522 | 2873.0 ± 57.4 | 0.312 ± 0.0719 | 2766.2 ± 53.9 fmol/10^6 cells/h | 0.324 ± 0.0537 | 2280.1 ± 81.4^∗ fmol/10^6 cells/h | 0.404 ± 0.0931 | 1797.6 ± 48.9^∗ fmol/10^6 cells/h | 0.403 ± 0.0347 | 993.5 ± 74.8^∗ fmol/10^6 cells/h | 0.385 ± 0.0466 | 522.5 ± 54.8^∗ fmol/10^6 cells/h |  | 0.0554 ± 0.0205 | 0.22 ± 0.04 |  | 2873.0 ± 327.4 fmol/10^6 cells/h and 2873.0 ± 527.4 fmol/10^6 cells/h and 2873.0 ± 327.4^∗ fmol/10^6 cells/h | 0.14 ± 0.02 | 870.0 ± 79.1 |  | 
C[C@]12CC[C@H]3[C@@H](CCC4=CC(=O)CC[C@@]43C)[C@@H]1CC[C@@H]2O [T, testosterone] | 0.107 ± 0.0063 | 9.95 ± 0.42 | 0.107 ± 0.0059 |  | 0.107 ± 0.0038 | 18.4 ± 0.7^∗ fmol/10^6 cells/h | 0.106 ± 0.0024 | 26.7 ± 0.4^∗ fmol/10^6 cells/h | 0.106 ± 0.004 | 35.9 ± 0.8^∗ fmol/10^6 cells/h | 0.103 ± 0.0048 | 39.7 ± 1.1^∗ fmol/10^6 cells/h |  | 0.0563 ± 0.0214 | 91.2 ± 15.9 |  | 9.96 ± 1.42^∗ fmol/10^6 cells/h | 57.1 ± 6.2 | 4.78 ± 0.38 | 19.4 ± 1.6 | 
C[C@]12CCC(=O)C=C1CC[C@@H]1[C@@H]2CC[C@]2(C)C(=O)CC[C@@H]12 [AD, 4-androstene-3,17-dione] | 0.115 ± 0.0096 | 147.4 ± 13.1 | 0.104 ± 0.0104 | 148.5 ± 9.4 fmol/10^6 cells/h | 0.102 ± 0.0079 | 172.6 ± 7.7^∗ fmol/10^6 cells/h | 0.112 ± 0.0107 | 242.0 ± 14.4^∗ fmol/10^6 cells/h | 0.106 ± 0.0042 | 295.3 ± 9.4^∗ fmol/10^6 cells/h | 0.0996 ± 0.0082 | 328.8 ± 12.9^∗ fmol/10^6 cells/h |  | 0.126 ± 0.0366 | 1994.0 ± 364.5 |  | 147.4 ± 8.1^∗ fmol/10^6 cells/h | 888.9 ± 60.1 | 68.5 ± 11.1 | 165.1 ± 18.7 | 
